Experimental data: patent US20260138988A1, “Spiropyrrolidine Derived Antiviral Agents” (Enanta Pharmaceuticals, Inc., priority 2021, published 2026)

These molecules were tested against SARS-CoV-2 3CL-protease (Severe acute respiratory syndrome coronavirus 2, UniProt P0DTD1) (assay: SARS-CoV-2 3C-Like (3CL) Protease Fluorescence Assay (FRET)). Conditions: IC50, SARS-CoV-2 3CL-protease 10 nM, test compounds 0-10 μM, duplicate.
Assay type: biochemical
With C[C@H](NC(=O)C(F)(F)C(F)(F)C(F)(F)F)C(=O)N(C)[C@@H](CC1CC1)C(=O)N1C[C@]2(C[C@H]1C#N)C(=O)Nc1ccccc12 [Example 206] the IC50 was less than 100 nM. Work on C[C@H](NC(=O)C(F)(F)C(F)(F)C(F)(F)F)C(=O)N(C)[C@@H](C)C(=O)N1C[C@]2(C[C@H]1C#N)C(=O)Nc1ccccc12 [Example 198] yielded an IC50 of less than 100 nM. In the case of CC[C@H](NC(=O)C(F)(F)C(F)(F)C(F)(F)F)C(=O)N(C)[C@@H](CC(C)C)C(=O)N1C[C@]2(C[C@H]1C#N)C(=O)Nc1ccccc12 [Example 201], the IC50 is reported as less than 100 nM. In the case of C[C@H](NC(=O)C(F)(F)C(F)(F)F)C(=O)N(C)[C@@H](CC1CC1)C(=O)N1C[C@]2(C[C@H]1C#N)C(=O)N(COP(=O)(OC(C)(C)C)OC(C)(C)C)c1ccccc12 [Example 351], the IC50 is reported as less than 100 nM.

Same assay, conditions: SARS-CoV-2 3CL-protease 10 nM, test compounds 0-10 μM, duplicate, read-out: IC50
With C[C@H](NC(=O)c1cc(F)c2nn(C3CC3)cc2c1)C(=O)N(C)[C@@H](CC(C)(C)C)C(=O)N1C[C@]2(C[C@H]1C#N)C(=O)Nc1ccccc12 [Example 220] the IC50 was less than 100 nM. Molecule C[C@H](NC(=O)c1ccc(OC2CC2)c(OC2CC2)c1)C(=O)N(C)[C@@H](CC(C)(C)C)C(=O)N1C[C@]2(C[C@H]1C#N)C(=O)Nc1ccccc12 [Example 216] has an IC50 of less than 100 nM. CN(C(=O)[C@@H]1C[C@@H](c2ccccc2)CN1)[C@@H](CC(C)(C)C)C(=O)N1C[C@]2(C[C@H]1C#N)C(=O)Nc1ccccc12 [Example 232] gave an IC50 of less than 100 nM. CC(C)C[C@H](NC(=O)OC1CCC1)C(=O)N[C@@H](CC(C)(C)C)C(=O)N1C[C@]2(C[C@H]1C#N)C(=O)Nc1ccccc12 [Example 250] was tested, and the IC50 was less than 100 nM. For CN(C(=O)[C@@H]1CC[C@@H](C(F)(F)F)N1)[C@@H](CC(C)(C)C)C(=O)N1C[C@]2(C[C@H]1C#N)C(=O)Nc1ccccc12 [Example 233], the IC50 was less than 100 nM. C[C@H](NC(=O)OCc1ccccc1)C(=O)N(C)[C@@H](Cc1ccccc1)C(=O)N1C[C@]2(C[C@H]1C#N)C(=O)Nc1ccccc12 [Example 274] showed an IC50 of less than 100 nM. CC(C)(C)C[C@H](NC(=O)C(F)(F)F)C(=O)N[C@@H](CC(C)(C)C)C(=O)N1C[C@]2(C[C@H]1C#N)C(=O)Nc1ccccc12 [Example 226] was tested, and the IC50 was less than 100 nM. In the case of CC(C)CC(NC(=O)c1cnn(CC(F)(F)F)c1)C(=O)N1CC[C@H](c2ccccc2)[C@H]1C(=O)N1C[C@]2(C[C@H]1C#N)C(=O)Nc1ccccc12 (stereo partly drawn) [Example 346], the IC50 is reported as less than 100 nM. C[C@H](NC(=O)C12CC(C)(C1)C2)C(=O)N(C)[C@@H](CC(C)(C)C)C(=O)N1C[C@]2(C[C@H]1C#N)C(=O)Nc1ccccc12 [Example 309] showed an IC50 of less than 100 nM. With CCN(C(=O)[C@H](C)NC(=O)c1ccc(C(C)(C)C)cc1)[C@@H](CC(C)C)C(=O)N1C[C@]2(C[C@H]1C#N)C(=O)Nc1ccccc12 [Example 363] the IC50 was less than 100 nM. Molecule CC(C)C[C@@H](C(=O)N1C[C@]2(C[C@H]1C#N)C(=O)Nc1ccccc12)N(C)C(=O)[C@H](C)NC(=O)c1ccc2c(c1)OCC2 [Example 190] has an IC50 of less than 100 nM. CCN(C(=O)[C@H](C)NC(=O)OC(C)C)[C@@H](CC(C)C)C(=O)N1C[C@]2(C[C@H]1C#N)C(=O)Nc1ccccc12 [Example 371] gave an IC50 of less than 100 nM. Work on CN(C(=O)[C@@H]1CC[C@@H](C2CC2)N1)[C@@H](CC(C)(C)C)C(=O)N1C[C@]2(C[C@H]1C#N)C(=O)Nc1ccccc12 [Example 228] yielded an IC50 of less than 100 nM. C[C@H](NC(=O)C(F)(F)F)C(=O)N(C)[C@@H](CC1CC1)C(=O)N1C[C@]2(C[C@H]1C#N)C(=O)Nc1ccccc12 [Example 203] gave an IC50 of less than 100 nM. Molecule CC(C)C[C@@H](C(=O)N1C[C@]2(C[C@H]1C#N)C(=O)Nc1ccccc12)N(C)C(=O)[C@@H]1CC[C@@H](c2ccc(F)cc2)N1C(C)C [Example 238] has an IC50 of less than 100 nM. C[C@H](NC(=O)c1ccc(C(C)(C)C)cc1)C(=O)N(C)[C@@H](CC(C)(C)C)C(=O)N1C[C@]2(C[C@H]1C#N)C(=O)Nc1ccccc12 [Example 213] was tested, and the IC50 was less than 100 nM. Work on CCN1C[C@H]2C[C@H]2[C@H]1C(=O)N(C)[C@@H](CC(C)C)C(=O)N1C[C@]2(C[C@H]1C#N)C(=O)Nc1ccccc12 [Example 254] yielded an IC50 of 100 to 1000 nM. Molecule C[C@H](NC(=O)C12CC3CC(CC(C3)C1)C2)C(=O)N(C)[C@@H](CC(C)(C)C)C(=O)N1C[C@]2(C[C@H]1C#N)C(=O)Nc1ccccc12 [Example 310] has an IC50 of less than 100 nM. Molecule COCCC(=O)N[C@@H](C)C(=O)N(C)[C@@H](CC(C)(C)C)C(=O)N1C[C@]2(C[C@H]1C#N)C(=O)Nc1ccccc12 [Example 262] has an IC50 of less than 100 nM. For CCN(C(=O)[C@H](C)NC(=O)C12CC3CC(CC(C3)C1)C2)[C@@H](CC(C)C)C(=O)N1C[C@]2(C[C@H]1C#N)C(=O)Nc1ccccc12 [Example 368], the IC50 was less than 100 nM. Work on CCN(C(=O)C(C)NC(=O)C12CC(C)(C1)C2)C(CC(C)C)C(=O)N1CC2(CC1C#N)C(=O)Nc1ccccc12 (stereo not drawn) [Example 367] yielded an IC50 of less than 100 nM. In the case of C[C@H](NC(=O)c1ccc(-c2ccccc2)cc1)C(=O)N(C)[C@@H](CC(C)(C)C)C(=O)N1C[C@]2(C[C@H]1C#N)C(=O)Nc1ccccc12 [Example 289], the IC50 is reported as less than 100 nM. Work on C[C@H](NC(=O)C(F)(F)C(F)(F)F)C(=O)N(C)[C@@H](CC1CC1)C(=O)N1C[C@]2(C[C@H]1C#N)C(=O)N(COP(=O)(O)O)c1ccccc12 [Example 352] yielded an IC50 of less than 100 nM. In the case of C[C@H](Nc1ccc(F)cc1)C(=O)N[C@@H](CC(C)(C)C)C(=O)N1C[C@]2(C[C@H]1C#N)C(=O)Nc1ccccc12 [Example 336], the IC50 is reported as 100 to 1000 nM. C[C@H](NC(=O)c1cccc2cc(F)ccc12)C(=O)N(C)[C@@H](CC(C)(C)C)C(=O)N1C[C@]2(C[C@H]1C#N)C(=O)Nc1ccccc12 [Example 215] was tested, and the IC50 was less than 100 nM. With C[C@@H]1CC[C@@H](C(=O)N(C)[C@@H](CC(C)(C)C)C(=O)N2C[C@]3(C[C@H]2C#N)C(=O)Nc2ccccc23)N1C [Example 239] the IC50 was less than 100 nM. CC(C)C[C@@H](C(=O)N1C[C@]2(C[C@H]1C#N)C(=O)Nc1ccccc12)N(C)C(=O)[C@H](C)NC(=O)C(=O)Nc1c(F)cccc1C(F)(F)F [Example 202] was tested, and the IC50 was less than 100 nM. Work on CC(C)C[C@@H](C(=O)N1C[C@]2(C[C@H]1C#N)C(=O)Nc1ccccc12)N(C)C(=O)[C@@H]1C[C@H]2C[C@H]2N1C [Example 260] yielded an IC50 of less than 100 nM. Molecule C[C@H](NC(=O)c1cccc2cc(Cl)ccc12)C(=O)N(C)[C@@H](CC(C)(C)C)C(=O)N1C[C@]2(C[C@H]1C#N)C(=O)Nc1ccccc12 [Example 284] has an IC50 of less than 100 nM. Work on CCN(C(=O)[C@H](C)NC(=O)c1ccc(OC(F)(F)F)cc1)[C@@H](CC(C)C)C(=O)N1C[C@]2(C[C@H]1C#N)C(=O)Nc1ccccc12 [Example 361] yielded an IC50 of less than 100 nM. CC(C)C[C@@H](C(=O)N1C[C@]2(C[C@H]1C#N)C(=O)Nc1ccccc12)N(C)C(=O)[C@H](C)NC(=O)c1cccc2cc(F)ccc12 [Example 295] showed an IC50 of less than 100 nM. Molecule CC(C)C[C@@H](C(=O)N1C[C@]2(C[C@H]1C#N)C(=O)Nc1ccccc12)N(C)C(=O)[C@H](C)NC(=O)c1cc2occc2cc1F [Example 188] has an IC50 of less than 100 nM. Molecule CC(C)C[C@@H](C(=O)N1C[C@]2(C[C@H]1C#N)C(=O)Nc1ccccc12)N(C)C(=O)[C@H](C)NC(=O)C(F)(F)C1CC1 [Example 285] has an IC50 of less than 100 nM. CC(C)C[C@@H](C(=O)N1C[C@]2(C[C@H]1C#N)C(=O)Nc1ccccc12)n1cccc(NC(=O)OC(C)(C)C)c1=O [Example 354] was tested, and the IC50 was 100 to 1000 nM. COCCOCCC(=O)N[C@@H](C)C(=O)N(C)[C@@H](CC(C)(C)C)C(=O)N1C[C@]2(C[C@H]1C#N)C(=O)Nc1ccccc12 [Example 263] showed an IC50 of less than 100 nM. For CN(C(=O)[C@@H]1C[C@H](c2ccccc2)CN1)[C@@H](CC(C)(C)C)C(=O)N1C[C@]2(C[C@H]1C#N)C(=O)Nc1ccccc12 [Example 231], the IC50 was less than 100 nM. CCN(C(=O)[C@H](C)NC(=O)c1ccc(Cl)c(Cl)c1)[C@@H](CC(C)C)C(=O)N1C[C@]2(C[C@H]1C#N)C(=O)Nc1ccccc12 [Example 364] was tested, and the IC50 was less than 100 nM. Work on C[C@H](NC(=O)C(F)(F)C(F)(F)F)C(=O)N(C)[C@@H](CC1CC1)C(=O)N1C[C@]2(C[C@H]1C#N)C(=O)Nc1ccc(Cl)cc12 [Example 170] yielded an IC50 of less than 100 nM. Work on CC(C)C[C@@H](C(=O)N1C[C@]2(C[C@H]1C#N)C(=O)Nc1ccccc12)N(C)C(=O)[C@@H]1C[C@H]2C[C@H]2N1C1CC1 [Example 258] yielded an IC50 of less than 100 nM. Work on C[C@H](NC(=O)c1cccc2ccc(Cl)cc12)C(=O)N(C)[C@@H](CC(C)(C)C)C(=O)N1C[C@]2(C[C@H]1C#N)C(=O)Nc1ccccc12 [Example 294] yielded an IC50 of less than 100 nM. CC(C)(C)C[C@H](NC(=O)[C@H](CC1CC1)NC(=O)c1ccc(C2CCCCC2)cc1)C(=O)N1C[C@]2(C[C@H]1C#N)C(=O)Nc1ccccc12 [Example 303] gave an IC50 of less than 100 nM. Molecule CCN1CC2(CCCC2)C[C@H]1C(=O)N(C)[C@@H](CC(C)C)C(=O)N1C[C@]2(C[C@H]1C#N)C(=O)Nc1ccccc12 [Example 257] has an IC50 of less than 100 nM. Molecule C[C@H](NC(=O)c1cccc(-c2ccccc2)c1)C(=O)N(C)[C@@H](CC(C)(C)C)C(=O)N1C[C@]2(C[C@H]1C#N)C(=O)Nc1ccccc12 [Example 290] has an IC50 of less than 100 nM. Work on CC(C)C[C@@H](C(=O)N1C[C@]2(C[C@H]1C#N)C(=O)Nc1ccccc12)N(C)C(=O)[C@H](C)NC(=O)C1CC1(C)C (stereo partly drawn) [Example 265] yielded an IC50 of less than 100 nM. C[C@H](NC(=O)C(F)(F)C(F)(F)F)C(=O)N(C)[C@@H](CC(C)(C)C)C(=O)N1C[C@]2(C[C@H]1C#N)C(=O)N(Cl)c1ccc(Cl)cc12 [Example 172] was tested, and the IC50 was less than 100 nM. CCN1[C@H](C(=O)N(C)[C@@H](CC(C)C)C(=O)N2C[C@]3(C[C@H]2C#N)C(=O)Nc2ccccc23)CCC1(C)C [Example 240] was tested, and the IC50 was less than 100 nM. CC(C)C[C@@H](C(=O)N1C[C@]2(C[C@H]1C#N)C(=O)Nc1ccccc12)N(C)C(=O)[C@@H]1CC2(CC2)CN1C(C)C [Example 241] was tested, and the IC50 was less than 100 nM. Work on CC(C)C[C@@H](C(=O)N1C[C@]2(C[C@H]1C#N)C(=O)Nc1ccc(Br)cc12)N(C)C(=O)[C@H](C)NC(=O)C(F)(F)C(F)(F)F [Example 169] yielded an IC50 of less than 100 nM. For CCN(C(=O)[C@H](C)NC(=O)C(F)(F)F)[C@@H](CC(C)C)C(=O)N1C[C@]2(C[C@H]1C#N)C(=O)Nc1ccccc12 [Example 365], the IC50 was less than 100 nM. Work on C[C@H](NC(=O)c1ccc(F)cc1)C(=O)N[C@@H](CC(C)(C)C)C(=O)N1C[C@]2(C[C@H]1C#N)C(=O)Nc1ccccc12 [Example 218] yielded an IC50 of less than 100 nM.
